In paper PMC9405451, “Uptake and Immunomodulatory Properties of Betanin, Vulgaxanthin I and Indicaxanthin towards Caco-2 Intestinal Cells” (Antioxidants, 2022):

How the values were obtained:
COX-2 [1] = tested on: COX-2; parameters: method as in PMID 24306215; conditions: rat model of carrageenan-induced pleurisy; cited from earlier work
NOX-1 [2] = tested on: NOX-1; parameters: method as in PMID 23931157; conditions: 25 μM; cited from earlier work
iNOS [3] = tested on: iNOS; parameters: method as in PMID 24306215; conditions: rat model of carrageenan-induced pleurisy; cited from earlier work
iNOS [4] = experiment: iNOS mRNA level (qPCR) in cytokine-stimulated Caco-2 cells; format: cell-based, human; conditions: 5–80 μM, 6 h cytokine stimulation, maximum effect
Description: (§1) Confluent Caco-2 cells were stimulated with a cocktail of cytokines comprised of tumour necrosis factor-α (TNF-α, 20 ng mL^−1), interleukin-1β (IL-1β, 40 ng mL^−1), interferon-γ (IFN-γ, 10 ng mL^−1) and lipopolysaccharide (LPS, 100 ng mL^−1) in the presence or absence of BET, VUL and IND treatments (5–80 µM) for 6 h. With the completion of incubations, cells were washed with cold DPBS and lysed with TRIsure reagent (Scientific Laboratory Supplies Ltd.). Total RNA of cell samples was extracted in accordance with the manufacturer’s instructions. After resuspending the RNA pellets in DEPC water, concentration and quality were determined using the NanoQuant plate (Tecan Spark 10M plate reader) at 260 and 280 nm. Reverse transcription of RNA was achieved using the iScript™ cDNA Synthesis Kit (Bio-Rad). Transcription levels of target genes—interleukin 6 (IL-6), IL-8, COX-2, iNOS, NADPH oxidase 1 (NOX-1), NAD(P)H quinone dehydrogenase 1 (NQO-1), heme oxygenase 1 (HO-1), glutamate-cysteine ligase catalytic subunit (GCLC), glutathione peroxidase 1 (GPX-1), glutathione S-transferase 1 (GSTA-1) and GSTP-1 were evaluated using SybrGreen based reagent (SensiFast SYBR Green, SLS Ltd., Galveston, TX, USA) via real-time qPCR using StepOne Plus Real-Time PCR System (Applied Biosystems, Nottingham, UK). […]

[5] = parameters: method as in PMID 18959410; conditions: cited from earlier work
[6] = tested on: differentiated Caco-2 cells; experiment: Intracellular accumulation in differentiated Caco-2 cells; format: in vitro ADME, human; conditions: 250 μM, 2 h incubation in HBSS
Description: For accumulation experiments, differentiated Caco-2 cells were incubated with purified BET, VUL and IND (250 μM) for 2 h in HBSS. The cell layer was washed twice with DPBS prior to being scraped into methanol, and pigments were subsequently extracted for LC-MS analysis. The total protein content of lysed cells was determined by bicinchoninic acid (BCA) assay (Pierce™ Thermo Scientific) in accordance with the manufacturer’s instructions.
(§2) Betalain compounds from the cell culture samples were quantified and identified by an ultra-high-speed LC fitted with a UV-Vis detector (SPD-20A), followed by a single quadrupole MS with an electrospray ionisation source (ESI) (Shimazu, 2020). HPLC separation was performed by a reverse phase C18 column (100 mm × 2.1 mm I.D., 3.5 μm) at the temperature of 35 °C. […] Betacyanins and betaxanthins were detected at the wavelengths of 536 nm and 486 nm, respectively, and their molecular weights were monitored by ESI-MS with positive ion mode. Compounds were identified based on the m/z values and quantified using standard curves with purified betalains, as shown in Supplemental Figure S1.

Caco-2 cells = experiment: Intracellular ROS formation (DCFH2-DA) in H2O2-stressed Caco-2 cells; format: cell-based, human; conditions: at 80 μM, 200 μM H2O2
Description: The generation of reactive oxygen species (ROS) within Caco-2 cells was determined in 96-well plates with the probe 2′,7′-dichlorodihydrofluorescein diacetate (DCFH2-DA), which is intracellularly deacetylated and oxidised to highly fluorescent 2′,7′-dichlorofluorescein (DCF). DCFH2-DA (30 µM) dissolved in PBS with 1% FBS (v/v) was applied to the confluent Caco-2 cells and incubated for 40 min at 37 °C. After washing, cells were treated with BET, VUL and IND (5–80 μM) for 1 h and subsequently stressed with H2O2 (200 μM) for a further 1 h. The plate was scanned using Tecan Spark 10M^TM with excitation λ of 485 nm and emission λ of 535 nm. Subsequently, the protein content of each well was determined by SRB assay. Briefly, the medium was removed and the cells were washed with PBS and submerged with 50 μL of 0.004% SRB solution (w/v) in 10% trichloroacetic acid (w/v). Cells were incubated at room temperature for 15 min and washed with 1% acetic acid (200 μL, v/v). After treating with Tris base (10 mM, 100 μL), cells were incubated for 5 min under shaking conditions. Finally, the plate was scanned using a Tecan plate reader with excitation λ of 540 nm and emission λ of 590 nm. Results of the ROS assay were normalised to the relative protein content for each well and expressed as the relative fluorescence intensity % (RFI) with respect to the value of positive control.

GSTA-1 = GSTA-1 mRNA level (qPCR) in cytokine-stimulated Caco-2 cells; format: cell-based, human; conditions: 5–80 μM, 6 h cytokine stimulation, vs SC
Description: as §1

NOX-1 [7] = experiment: NOX-1 mRNA level (qPCR) in cytokine-stimulated Caco-2 cells; format: cell-based, human; conditions: 5–80 μM, 6 h cytokine stimulation, maximum effect
Description: as §1

iNOS [8] = tested on: iNOS; parameters: method as in PMID 23931157; conditions: 25 μM; cited from earlier work
[9] = Trans-epithelial transport (AP-to-BL) across differentiated Caco-2 monolayer; format: in vitro ADME, human; conditions: human, Caco-2, 1 mM in AP chamber, apical pH 6.5, basolateral pH 7.5, read-out: Papp (apparent permeability coefficient), absorptive direction AP-to-BL
Description: (§3) Trans-epithelial transport of purified betalains (AP-to-BL) was investigated in differentiated Caco-2 cells in 12-well plate transwell inserts (PET membrane, 0.4 μm pore size, Sarstedt) at an initial density of 1 × 10^5 cells cm^−2. Complete medium was added in both apical (AP) and basolateral (BL) chambers and was replaced every 2–3 days. Cell membrane integrity was monitored weekly through measurement of trans-epithelial electrical resistance (TEER) across the growth area until full differentiation of the cells after 21 days. During the experiment, Hanks’ balanced salt solution (HBSS) in the apical compartment was adjusted to pH 6.5 with MES (2 mM), while basolateral pH remained at 7.5 [25]. Purified BET, VUL and IND (420–1000 μM) were supplied to the apical side of the membrane and incubated at 37 °C for up to 2 h. As a marker compound of paracellular transport, phenolsulfonaphtalein (5 mM) was also applied to parallel cell membranes in the apical chamber. The study also evaluated the permeability of compounds through the Caco-2 membrane with a loosened tight junction in parallel wells which was achieved by 5-min incubation of differentiated membrane in trypsin EDTA (0.05%, v/v). The basolateral solution was collected and replaced every 30 min until 2 h, under initial rate conditions. The betalain-containing solutions were processed and submitted to LC-MS analysis, while phenolsulfonaphtalein was quantified spectrophotometrically at λ of 430 nm. TEER values were monitored at the beginning and the end of the experiment to check the impact of compounds on monolayer integrity. The apparent permeability coefficients (Papp) were calculated as per Equation (1), where V = volume of basolateral solution, A = cell growth area, C0 = initial concentration of apical betalain and dC/dt = steady-state flux across the monolayer. (1) Papp=1/C0×A·V×dC/dt
as §2

[10] = tested on: differentiated Caco-2 cells; experiment: as above; format: in vitro ADME, human; conditions: AP-to-BL
Description: as §3, §2

COX-2 [11] = tested on: COX-2; parameters: method as in PMID 23931157; conditions: 25 μM; cited from earlier work
COX-2 [12] = experiment: COX-2 mRNA level (qPCR) in cytokine-stimulated Caco-2 cells; format: cell-based, human; conditions: 5–80 μM, 6 h cytokine stimulation, maximum effect
Description: as §1

GPX-1 = GPX-1 mRNA level (qPCR) in cytokine-stimulated Caco-2 cells; format: cell-based, human; conditions: 5–80 μM, 6 h cytokine stimulation, vs SC
Description: as §1

IL-6 = IL-6 mRNA level (qPCR) in cytokine-stimulated Caco-2 cells; format: cell-based, human
Description: (§4) Confluent Caco-2 cells were stimulated with a cocktail of cytokines comprised of tumour necrosis factor-α (TNF-α, 20 ng mL^−1), interleukin-1β (IL-1β, 40 ng mL^−1), interferon-γ (IFN-γ, 10 ng mL^−1) and lipopolysaccharide (LPS, 100 ng mL^−1) in the presence or absence of BET, VUL and IND treatments (5–80 µM) for 6 h. With the completion of incubations, cells were washed with cold DPBS and lysed with TRIsure reagent (Scientific Laboratory Supplies Ltd.). Total RNA of cell samples was extracted in accordance with the manufacturer’s instructions. After resuspending the RNA pellets in DEPC water, concentration and quality were determined using the NanoQuant plate (Tecan Spark 10M plate reader) at 260 and 280 nm. Reverse transcription of RNA was achieved using the iScript™ cDNA Synthesis Kit (Bio-Rad). Transcription levels of target genes—interleukin 6 (IL-6), IL-8, COX-2, iNOS, NADPH oxidase 1 (NOX-1), NAD(P)H quinone dehydrogenase 1 (NQO-1), heme oxygenase 1 (HO-1), glutamate-cysteine ligase catalytic subunit (GCLC), glutathione peroxidase 1 (GPX-1), glutathione S-transferase 1 (GSTA-1) and GSTP-1 were evaluated using SybrGreen based reagent (SensiFast SYBR Green, SLS Ltd., Galveston, TX, USA) via real-time qPCR using StepOne Plus Real-Time PCR System (Applied Biosystems, Nottingham, UK). Primers of target genes were designed and blasted using the NCBI database, whose PCR product sizes were confirmed by 2% agarose gel electrophoresis. The list of primer sequences used in the study is presented in Supplemental Table S1. The calculation of target gene levels was based upon the Livak (2^−ΔΔCT) method with normalisation to the housekeeping gene, β-actin [31].

GCLC = GCLC mRNA level (qPCR) in cytokine-stimulated Caco-2 cells; format: cell-based, human; conditions: 5–80 μM, 6 h cytokine stimulation, vs SC
Description: as §1

[13] = EPR DPPH radical scavenging assay; conditions: 20 μM betalain
Description: (§5) Electron paramagnetic resonance (EPR) with spin trapping was used to determine superoxide and DPPH radical scavenging abilities of betalains reflected by the reduction of relative signal strength. EPR spectra were recorded 1 min after reagent mixing on a JEOL X320 spectrometer (X-band) in glass capillaries (0.8 mm ID). Superoxide assay was carried out by mixing the following solutions in 30% aqueous ethanol as solvent: hypoxanthine (1 mM, 55 μL), 5,5-dimethyl-1-pyrroline-N-oxide (DMPO) (1 M, 15 μL) and deferoxamine (10 mM, 10 μL). Individual betalains (200 and 500 μM) or solvent control were subsequently added in a volume of 10 μL. The reaction was initiated by the addition of 2 U mL^−1 xanthine oxidase (10 μL), achieving 20 and 50 μM as final concentrations of betalains in the mixture.
(§6) The 2,2-diphenyl-1-(2,4,6-trinitrophenyl)hydrazyl (DPPH) assay was conducted by mixing ethanol (40 μL) with 30% aqueous ethanol solutions of DPPH (100 μM, 50 μL) and purified betalains (200 μM, 10 μL), providing the working concentration of betalains as 20 μM. In both assays, acquisition of EPR spectra was started 1 min after reagent mixing. To improve the accuracy of measurements, the signal intensity for the superoxide assay was determined in triplicate by fitting the experimental spectra to the simulated superoxide-DMPO adduct spectra.

[14] = EPR spin-trapping superoxide radical scavenging assay; conditions: 20, 50 μM betalain
Description: as §5, §6

IL-8 = IL-8 mRNA level (qPCR) in cytokine-stimulated Caco-2 cells; format: cell-based, human
Description: as §4

[15] = parameters: method as in PMID 15447903, PMID 24306215, PMID 28358315; conditions: in vivo; cited from earlier work
[16] = 5–80 μM, 6 h cytokine stimulation, maximum effect
[17] = 10 μM co-treatment, 6 h, positive control (not shown)

Q: Which “Suppression of COX-2” value (COX-2 [1]) does the source give for `O=C(O)C1=C/C(=C/C=[N+]2/CCC[C@H]2C(=O)[O-])C[C@@H](C(=O)O)N1` [IND, indicaxanthin] here?
A: Its value is 88%.

Q: And the “Suppression of NOX-1 protein levels” value (NOX-1 [2])?
A: The value was 89%.

Q: And the “Suppression of iNOS” value (iNOS [3])?
A: Its value is 75%.

Q: What about the “Reduction of iNOS mRNA levels” value (iNOS [4]) of the same compound?
A: The value was under 42%.

Q: And the “Loss along the digestion” value [5]?
A: The value was “minor loss”.

Q: And the Intracellular accumulation [6]?
A: The Intracellular accumulation was 0.03 nmol per mg of protein.

Q: What about the “Reduction of H2O2-stimulated ROS” value (Caco-2 cells) of the same compound?
A: The value was 14%.

Q: And the “Induction of GSTA-1 expression” value (GSTA-1)?
A: The value was under 50%.

Q: And the “Attenuation of NOX-1 mRNA levels” value (NOX-1 [7])?
A: The value was “up to 34%”.

Q: And the “Suppression of iNOS protein levels” value (iNOS [8])?
A: Its value is 90%.

Q: And the Papp A→B at 2 h, 1 mM [9]?
A: Its Papp A→B at 2 h, 1 mM is 0.893 ×10⁻⁶ cm/s.

Q: What about the “Proportion transported within 2 h of total amount applied” value [10] of the same compound?
A: The value was 2.2%.

Q: What about the “Suppression of COX-2 protein levels” value (COX-2 [11]) of the same compound?
A: Its value is 80%.

Q: And the “Attenuation of COX-2 mRNA levels” value (COX-2 [12])?
A: Its value is “up to 34%”.

Q: What about the “Upregulation of GPX-1 expression” value (GPX-1) of the same compound?
A: The value was under 26%.

Q: And the “Downregulation of IL-6 expression vs cytokine control (SC)” value (IL-6; [16])?
A: The value was “up to 50%”.

Q: What about the “Upregulation of GCLC expression” value (GCLC) of the same compound?
A: The value was under 25%.

Q: And the “Antiradical activity in DPPH assay (EPR)” value [13]?
A: Its value is “did not exhibit any evident antiradical activity”.

Q: What about the “Antiradical activity in superoxide assay (EPR)” value [14] of the same compound?
A: The value was “did not exhibit any evident antiradical activity”.

Q: What about the “Downregulation of IL-8 expression vs cytokine control (SC)” value (IL-8; [16]) of the same compound?
A: The value was at most 39%.

Q: And the “Plasma concentration of IND compared with BET” value [15]?
A: The value was “around 20 fold”.

Q: What about the “Urinary recovery of IND compared with BET” value [15] of the same compound?
A: Its value is “around 20 fold”.

Q: For `COc1cc(/C=C/C(=O)CC(=O)/C=C/c2ccc(O)c(OC)c2)ccc1O` [curcumin, reference compound], which “Effect on cytokine-induced IL-6 generation” value (IL-6; [17]) is on record?
A: Its value is “strongly suppressed”.

Q: And the “Effect on cytokine-induced IL-8 generation” value (IL-8; [17])?
A: Its value is “strongly suppressed”.
